In patent publication US11780826B2 (Amgen Inc., priority 2017, dated 2023):

System: Bovine cardiac myofibrils
Experiment: In vitro model of dose-dependent myofibril ATPase modulation (AC1.4, pyruvate kinase/lactate dehydrogenase-coupled ATPase assay at pCa25)
Assay type: biochemical
Details: concentration at which ATPase activity was 1.4-fold higher than the bottom of the dose curve, mean of a minimum of two independent tests
How it was run: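 Compound dilutions were premixed with myofibrils, coupling enzymes, EGTA and CaCl2, then the reaction was started with an equal volume carrying ATP (final 1 mM), NADH and PEP. ATP turnover was followed at 340 nm, and dose responses were fit to a four-parameter equation.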

Structure (SMILES)	AC1.4
O=C(NCc1ccc(C(F)(F)F)cc1)[C@H]1COCCN1C(=O)c1cccc(S(=O)(=O)N2CC3(CC3)C2)c1 [Example 537, (R)-4-(3-((5-azaspiro[2.3]hexan-5-yl)sulfonyl)benzoyl)-N-(4-(trifluoromethyl)benzyl)morpholine-3-carboxamide]	2.7025 µM
CS(=O)(=O)c1cccc(C(=O)N2CC3(CCC3)C2C(=O)N[C@@H](c2ccc(C(F)(F)F)cc2F)C2CC2)c1 (stereo partly drawn) [Example 609, N-((R)-cyclopropyl(2-fluoro-4-(trifluoromethyl)phenyl)methyl)-2-(3-(methylsulfonyl)benzoyl)-2-azaspiro[3.3]heptane-1-carboxamide]	3.7443 µM
CS(=O)(=O)c1cncc(C(=O)N2CC[C@H](C(F)(F)F)[C@H]2C(=O)N[C@@H](c2cc(F)c(C(F)(F)F)cc2F)C2CC2)c1 [Example 236, (3S)-N-((R)-cyclopropyl(2,5-difluoro-4-(trifluoromethyl)phenyl)methyl)-1-((5-(methylsulfonyl)-3-pyridinyl)carbonyl)-3-(trifluoromethyl)-L-prolinamide]	0.5579 µM
NC(=O)C1(c2cccc(C(=O)N3[C@@H](C(=O)N[C@@H](c4ccc(C(F)(F)F)cc4F)C4COC4)C[C@H]4C[C@H]43)c2)CC1 [Example 349, (1R,3R,5R)-2-(3-(1-carbamoylcyclopropyl)benzoyl)-N-((R)-(2-fluoro-4-(trifluoromethyl)phenyl)(3-oxetanyl)methyl)-2-azabicyclo[3.1.0]hexane-3-carboxamide]	1.0296 µM
CS(=O)(=O)c1cccc(C(=O)N2CCC[C@@H]2C(=O)N[C@@H](c2ccc(Cl)cc2F)C2CC2)c1 [Example 479, N-((R)-(4-chloro-2-fluorophenyl)(cyclopropyl)methyl)-1-(3-(methylsulfonyl)benzoyl)-D-prolinamide]	1.887 µM
CS(=O)(=O)c1cccc(C(=O)N2CCC(F)(F)CC2C(=O)N[C@@H](c2ccc(C(F)(F)F)cc2F)C2CC2)c1 (stereo partly drawn) [Example 525, N-((R)-cyclopropyl(2-fluoro-4-(trifluoromethyl)phenyl)methyl)-4,4-difluoro-1-(3-(methylsulfonyl)benzoyl)piperidine-2-carboxamide]	2.4285 µM
CCNc1ccccc1C(=O)N1[C@@H](C(=O)N[C@@H](c2ccc(C(F)(F)F)cc2F)C2COC2)C[C@H]2C[C@H]21 [Example 217, (1R,3R,5R)-2-(2-(ethylamrno)benzoyl)-N-((R)-(2-fluoro-4-(trifluoromethyl)phenyl)(3-oxetanyl)methyl)-2-azabicyclo[3.1.0]hexane-3-carboxamide]	0.4751 µM
O=C(N[C@@H](c1ccc(C(F)(F)F)cc1F)C1CC1)[C@H]1CCCN1C(=O)c1cccc(C(F)(F)F)c1 [Example 252, N-((R)-cyclopropyl(2-fluoro-4-(trifluoromethyl)phenyl)methyl)-1-(3-(trifluoromethyl)benzoyl)-D-prolinamide]	0.6066 µM
CS(=O)(=O)c1cccc(C(=O)N2[C@@H](C(=O)N[C@@H](c3cc(F)c(C(F)F)cc3F)C3CC3)C[C@H]3C[C@H]32)c1 [Example 197, (1R,3R,5R)-N-((R)-cyclopropyl(4-(difluoromethyl)-2,5-difluorophenyl)methyl)-2-(3-(methylsulfonyl)benzoyl)-2-azabicyclo[3.1.0]hexane-3-carboxamide]	0.3963 µM
CS(=O)(=O)c1cncc(C(=O)N2C[C@H](C(F)F)C[C@@H]2C(=O)N[C@@H](c2ccc(C(F)(F)F)cc2F)C2CC2)c1 [Example 682, (4R)-N-((R)-cyclopropyl(2-fluoro-4-(trifluoromethyl)phenyl)methyl)-4-(difluoromethyl)-1-((5-(methylsulfonyl)-3-pyridinyl)carbonyl)-D-prolinamide]	4.606 µM
CC(C)Nc1ccc(S(C)(=O)=O)cc1C(=O)N1CCC[C@@H]1C(=O)N[C@@H](c1ccc(C(F)(F)F)cc1F)C1CC1 [Example 81, N-((R)-cyclopropyl(2-fluoro-4-(trifluoromethyl)phenyl)methyl)-1-(5-(methylsulfonyl)-2-(2-propanylamino)benzoyl)-D-prolinamide]	0.1048 µM
CC(C)N(C)S(=O)(=O)c1cccc(C(=O)N2CCC[C@@H]2C(=O)NCc2ccc(C(F)(F)F)cc2)c1 [Example 315, 1-(3-(methyl(2-propanyl)sulfamoyl)benzoyl)-N-(4-(trifluoromethyl)benzyl)-D-prolinamide]	0.8574 µM

The remaining lines, values ahead:

AC1.4	Structure (SMILES)
1.143 µM	CN(Cc1ccc(C(F)(F)F)cc1)C(=O)[C@H]1CCCN1C(=O)[C@H]1CCCN(S(=O)(=O)N2CC(C#N)C2)C1 [Example 363, 1-(((3S)-1-((3-cyano-1-azetidinyl)sulfonyl)-3-piperidinyl)carbonyl)-N-methyl-N-(4-(trifluoromethyl)benzyl)-D-prolinamide]
2.8175 µM	Cc1ccc(CNC(=O)[C@H]2CCCN2C(=O)[C@H]2CCCN(S(=O)(=O)N3CC(C#N)C3)C2)cc1C(F)(F)F [Example 544, 1-(((3S)-1-((3-cyano-1-azetidinyl)sulfonyl)-3-piperidinyl)carbonyl)-N-(4-methyl-3-(trifluoromethyl)benzyl)-D-prolinamide]
3.2325 µM	N#CC1CN(S(=O)(=O)N2CCC[C@H](C(=O)N3CCC[C@@H]3C(=O)NCc3ccccc3Cl)C2)C1 [Example 574, N-(2-chlorobenzyl)-1-(((3S)-1-((3-cyano-1-azetidinyl)sulfonyl)-3-piperidinyl)carbonyl)-D-prolinamide]
0.0227 µM	N#CC1CN(S(=O)(=O)N2CCC[C@H](C(=O)N3CCC[C@@H]3C(=O)N[C@H](CC3CC3)c3ccc(C(F)(F)F)cc3)C2)C1 [Example 14, 1-(((3S)-1-((3-cyano-1-azetidinyl)sulfonyl)-3-piperidinyl)carbonyl)-N-((1R)-2-cyclopropyl-1-(4-(trifluoromethyl)phenyl)ethyl)-D-prolinamide]
4.572 µM	N#CC1CN(S(=O)(=O)N2CCC[C@H](C(=O)N3CCC[C@@H]3C(=O)NC3COc4ccc(C(F)(F)F)cc43)C2)C1 (stereo partly drawn) [Example 657, (2R)-1-((S)-1-((3-cyanoazetidin-1-yl)sulfonyl)piperidine-3-carbonyl)-N-(5-(trifluoromethyl)-2,3-dihydrobenzofuran-3-yl)pyrrolidine-2-carboxamide]
0.3628 µM	N#C[C@H]1CCN(S(=O)(=O)N2CCC[C@H](C(=O)N3CCC[C@@H]3C(=O)NCc3ccc(C(F)(F)F)cc3)C2)C1 [Example 192, 1-(((3S)-1-(((3S)-3-cyano-1-pyrrolidinyl)sulfonyl)-3-piperidinyl)carbonyl)-N-(4-(trifluoromethyl)benzyl)-D-prolinamide]
0.0435 µM	CC(C)C[C@@H](NC(=O)[C@H]1CCCN1C(=O)c1cccc(S(=O)(=O)N2CC(C#N)C2)c1)c1ccc(C(F)(F)F)cc1 [Example 45, 1-(3-((3-cyano-1-azetidinyl)sulfonyl)benzoyl)-N-((1R)-3-methyl-1-(4-(trifluoromethyl)phenyl)butyl)-D-prolinamide]
3.5295 µM	C[C@@H](NC(=O)[C@H]1CCCN1C(=O)[C@H]1CCCN(S(=O)(=O)N2CC(C)(O)C2)C1)c1ccc(C(F)(F)F)cc1F [Example 597, N-((1R)-1-(2-fluoro-4-(trifluoromethyl)phenyl)ethyl)-1-(((3S)-1-((3-hydroxy-3-methyl-1-azetidinyl)sulfonyl)-3-piperidinyl)carbonyl)-D-prolinamide]
8.3045 µM	Cc1nnc(CNS(=O)(=O)N2CCC[C@H](C(=O)N3CCC[C@@H]3C(=O)NCc3ccc(C(F)(F)F)cc3)C2)o1 [Example 774, 1-(((3S)-1-(((5-methyl-1,3,4-oxadiazol-2-yl)methyl)sulfamoyl)-3-piperidinyl)carbonyl)-N-(4-(trifluoromethyl)benzyl)-D-prolinamide]
0.179 µM	N#CC1CN(S(=O)(=O)N2CCC[C@H](C(=O)N3CCC[C@@H]3C(=O)N[C@@H](c3ccc(S(F)(F)(F)(F)F)cc3)C3CC3)C2)C1 [Example 117, 1-(((3S)-1-((3-cyano-1-azetidinyl)sulfonyl)-3-piperidinyl)carbonyl)-N-((R)-cyclopropyl(4-(pentafluoro-lambda~6~-sulfanyl)phenyl)methyl)-D-prolinamide]
0.8885 µM	N#CC1CN(S(=O)(=O)N2CCC[C@H](C(=O)N3[C@@H](C(=O)NCc4ccc(C(F)(F)F)nc4)C[C@H]4C[C@H]43)C2)C1 [Example 326]
3.3545 µM	O=C(NCc1ccc(C(F)(F)F)cc1)[C@H]1CCCN1C(=O)[C@H]1CCCN(S(=O)(=O)N2CC(Oc3ccncc3)C2)C1 [Example 580, 1-(((3S)-1-((3-(4-pyridinyloxy)-1-azetidinyl)sulfonyl)-3-piperidinyl)carbonyl)-N-(4-(trifluoromethyl)benzyl)-D-prolinamide]
0.179 µM	N#CC1CN(S(=O)(=O)N2CCO[C@H](C(=O)N3CCC[C@@H]3C(=O)NCc3ccc(C(F)(F)F)cc3F)C2)C1 [Example 116]
0.0238 µM	C[C@@H](NC(=O)[C@H]1CCCN1C(=O)c1cc(F)cc(S(=O)(=O)N2CC(C#N)C2)c1)c1ccc(C(F)(F)F)cc1 [Example 16, 1-((3-((3-cyano-1-azetidinyl)sulfonyl)-5-fluorophenyl)carbonyl)-N-((1R)-1-(4-(trifluoromethyl)phenyl)ethyl)-D-prolinamide]
0.7603 µM	CC[C@H](NC(=O)[C@H]1CCCN1C(=O)[C@H]1CCCN(S(=O)(=O)N2CC(C#N)C2)C1)c1ccc(C(F)(F)F)cc1F [Example 293, 1-(((3S)-1-((3-cyano-1-azetidinyl)sulfonyl)-3-piperidinyl)carbonyl)-N-((1S)-1-(2-fluoro-4-(trifluoromethyl)phenyl)propyl)-D-prolinamide]
0.8921 µM	O=C(NCc1ccc(C(F)(F)F)cc1)[C@H]1CCCN1C(=O)c1cccc(S(=O)(=O)N2CC3(COC3)C2)c1 [Example 329, 1-((3-(2-oxa-6-azaspiro[3.3]hept-6-ylsulfonyl)phenyl)carbonyl)-N-(4-(trifluoromethyl)benzyl)-D-prolinamide]
